From a melting point compilation (Tetko et al.; mined from patent text by program, amines drawn as free bases though some values may be those of a salt)

Structure (SMILES)	melting point [°C]
Cc1ccc(NS(=O)(=O)c2ccc(N3CCNC3=O)cc2)cc1	218 to 220
O=Cc1ccc(-c2ccc(-c3ccsc3)s2)s1	155 to 157
O=C(O)c1ccc(S(=O)(=O)Cl)cc1O	173
CSc1nc(C)ccc1NC(=O)CCCCCSc1nc2ccccc2s1	122 to 123
COc1cc(Nc2c(C#N)cnc3cc(OCCCN4CCS(=O)(=O)CC4)c(OC)cc23)c(Cl)cc1Cl	118 to 120
C[C@H]1OC(=O)[C@@H](N)[C@@H]1C(=O)O	196 to 200
C(CCc1ccccc1)=C1CCN(Cc2nc3ccccc3[nH]2)CC1	163 to 165
CC(C)C(C)(C(N)=O)N1C(=O)c2ccccc2C1=O (stereo unspecified)	118 to 119
O=C(COc1cc(N2C(=O)C3=C(CCCC3)C2=O)c(F)cc1Cl)OCc1nc[nH]n1	151 to 154
COc1ccc(Cc2cnc(N[N+](=O)[O-])[nH]c2=O)cn1	184 to 186
CCOP(C)(=O)c1cc(Cl)ccc1Cl (stereo unspecified)	90 to 91
CC(=O)Nc1cc2c3c(cccc3c1N1CCCC1)C(=O)N(O)C2=O	280 to 284
Cn1c(C#N)ccc1CC(=O)O	125 to 126
Cc1nc(N)c2nc(CCO)n(NC3CCOCC3)c2c1C	190 to 192
CC1(C)OC(c2ccc(S(C)(=O)=O)c(Cl)c2)=C(c2ccccc2)C1=O	174 to 175
Cn1ccc2cc(N3Cc4ccc(N5CCCC5)cc4C3=O)ccc21	252 to 253
C=Cc1cc(-c2ccc(S(C)(=O)=O)cc2)n(CC2CCCCC2)n1	136 to 138
CC(C)(C)NC(=NC#N)Nc1cc(F)cc(Cl)c1	156 to 157
O=C1NCN(c2ccccc2)C12CCN(CCCn1c(=O)[nH]c3cccc(Cl)c31)CC2	258
COc1ccc(-c2cc(=O)n(CC=Cc3ccc(F)cc3F)nc2-c2ccc(OC)cc2)cc1	107 to 108
Cc1cc(N)cc(C)c1NC(=O)CN1CCN(CCCC(c2ccc(F)cc2)c2ccc(F)cc2)CC1CO (stereo unspecified)	85.2
O=C1C(CCO)Oc2cc([N+](=O)[O-])ccc2N1Cc1cccc([N+](=O)[O-])c1 (stereo unspecified)	157 to 160
Cc1cc(NCCNC(=O)CCc2cc(C(C)(C)C)c(O)c(C(C)(C)C)c2)nc(Cl)c1C#N	162 to 165
Cc1c(CCN(C)C(=O)OC(C)(C)C)c2cc(S(=O)(=O)c3cccc4ccccc34)ccc2n1C	176 to 178
COc1cc(OC)c(F)c(NCc2cnc(SC)nc2NC2CC2)c1F	48 to 50
C#CCNc1ccc([N+](=O)[O-])cc1	150 to 153

Structure (SMILES)	melting point [°C]
O=[N+]([O-])c1cccc2c(Br)nccc12	187 to 188
Cc1[nH]c(=S)n(Nc2cccc(Cl)c2)c1-c1cccc(Br)c1	196
CS(=O)(=O)N[C@@H](CCCCNC=O)C(=O)NC[C@H](CC1(C(=O)N[C@@H](Cc2ccc(O)cc2)C(=O)O)CCCC1)C(=O)O	56 to 60
O=S(=O)(NCCCn1cncn1)c1ccc(Cl)cc1	77 to 79
COc1cccc(-c2ccc(O)cc2)c1	93 to 95
Cn1c(C(F)(F)F)ccc(-c2c(Cl)cc(Cl)c3oc(C(Br)(Br)Br)cc23)c1=O	225 to 227
C#CCOC(C(=O)NCCc1ccc(O)c(OC)c1)c1ccc(Cl)cc1 (stereo unspecified)	93 to 95
Cc1ccc(C=C2C=C(C(C)(C)C)C=C(C(C)(C)C)C2=O)cc1C	214 to 217
CC(=O)Nc1ccc2c(c1)C(C)(C)CCC2(C)C	116 to 118
Cc1ccc(S(=O)(=O)NCCN(C(=O)c2ccccc2C(=O)c2ccccc2)C(C)C)cc1	135 to 137
CN1CCC(c2c[nH]c3ccc(NC(=O)c4sccc4Br)nc23)CC1	245 to 247
CC(C)(C)NC(=O)c1ccc(Cl)c(C(F)(F)F)c1	131
CC(C)=CCOc1ccc(C(=O)C=Cc2cccnc2)c(O)c1	177 to 179
Cc1cnc2c(C#N)c(C)nn2c1-c1cccnc1	207 to 209
CSc1cc(C(C)(C)C)c(O)c(C(C)(C)C)c1	69 to 71
COc1ccc(/C=C/c2cc(/C=C/c3ccc4cc[nH]c4c3)[nH]n2)c(OC)c1	121 to 133
CC(C)n1nc(-c2sc(NC(=O)n3c4ccccc4c4ccccc43)nc2-c2ccccc2)ccc1=O	241 to 242
O=C1c2ccccc2C(=O)N1OCC1OC(n2ccc(=O)[nH]c2=O)CC1O (stereo unspecified)	241 to 242
CC(=Cc1cc([N+](=O)[O-])ccc1Cl)C(=O)O	228 to 230
CC(NC(=O)CBr)c1ccccc1 (stereo unspecified)	60 to 61
CC1Nc2ccc(S(=O)(=O)N(C)C)cc2S(=O)(=O)N1 (stereo unspecified)	210 to 212
Clc1ccc(-c2coc3c(Br)cccc23)cc1Cl	158 to 160
CN(C)c1nc(N)ncc1Cc1ccccc1	181 to 182
NS(=O)(=O)c1cnc(-c2cn(-c3cc(-c4ccc(Cl)cc4)cc(C(F)(F)F)n3)cn2)s1	263
OC(CCn1ccnc1)(c1ccccc1)c1ccc2sc3ccccc3c2c1 (stereo unspecified)	88 to 91
CCCCc1nc2c(N)nc3ccccc3c2n1CCCCCCCCNS(C)(=O)=O	121 to 124

Structure (SMILES)	melting point [°C]
CCOC(=O)C(=CNc1ccc(F)c(F)c1OCC1CN(Cc2ccccc2)CCN1Cc1ccccc1)C(=O)OCC (stereo unspecified)	109 to 110
CC1(C)COc2cc(O)c(C=O)cc21	100 to 102
CCCOc1cc2c(=O)c3ccccc3sc2cc1Cl	101 to 102
O=c1c2cccnc2c(-c2cccc([N+](=O)[O-])c2)nn1Cc1ccccc1	132
c1ccn2c(SCCN3CCNCC3)nnc2c1	104
CC1CC(Nc2nnc(-c3cccc(Oc4ccc(C(C)(C)C)cc4)c3)s2)CC(C)(C)C1 (stereo unspecified)	166 to 167
O=C(Nc1c([N+](=O)[O-])cc(F)c(Cl)c1F)C(F)(F)F	124 to 125
N#Cc1c(N2CCCCC2)cc(-c2cccc3ccccc23)c2c1Cc1ccccc1-2	148 to 149
O=C1NCCc2c(-c3ccc(C(F)(F)F)cc3)[nH]c3cccc1c23	208 to 209
CCNC(=O)CCCC1CCN(Cc2cnc3cc(NC(=O)c4ccc(-c5ccc(F)cc5)cc4)ccc3c2)CC1	209 to 213
O=C(c1ccc(F)cc1)N1CC2CC2(c2ccccc2)C1 (stereo unspecified)	101 to 103
COc1ccc2c(c1OC)C=NCN2CCC(=O)O	226 to 228
Cc1cccc(-c2n[nH]cc2-c2ccc(F)c(-c3c[nH]c(CCO)n3)c2)n1	219 to 220
Cc1ccc(S(=O)(=O)N(C)c2ccc(Cl)cc2Cl)cc1	86 to 87
CC(C)(C)OC(=O)NC1CCCCCC=CC2CC2(C(=O)NS(=O)(=O)C2CC2)NC(=O)C2CC(OC(=O)c3cnccn3)CN2C1=O (stereo unspecified)	150 to 152
CN(C)c1cc(-n2nc(N(C)C)n(C)c2=O)c(F)cc1C#N	109 to 110
O=C(O)c1cc(Br)c(Cl)cc1O	208 to 213
CC1C(c2ccccc2)OC(=O)N1C(=O)CC1c2ccccc2CCc2ccccc21 (stereo unspecified)	130 to 131
Fc1ccccc1C1CCN(Cc2ccccc2)CCN1Cc1ccccc1 (stereo unspecified)	82 to 83
O=C(O)C=Cc1ccc(/C=C/c2ccncc2)cc1	> 300
CCc1cc2c(cc1Oc1ccc(C(=O)O)cc1C)C(C)(C)CCC2(C)C	210 to 211
CS(=O)(=O)OCCc1cc([N+](=O)[O-])ccc1COS(C)(=O)=O	88 to 89
O=C1c2ccncc2C(=O)c2c(Cl)ccc(F)c21	204 to 206
COc1cc(Cl)c2nc(Cl)nc(O)c2c1OC	252 to 253
O=S(=O)(NCCCO)c1c(Cl)cc(Cl)cc1Cl	104 to 106
CN1CCC(N(CCN2CCCC2)C(=O)c2ccc(Nc3nccc(Nc4ccc(C(F)(F)F)cc4)n3)cc2)CC1	115 to 120

Structure (SMILES)	melting point [°C]
Cn1c(-c2ccccc2)c(C2=CCC(C(=O)O)(C(=O)O)CC2)c2ccccc21	210 to 211
CCCSc1ccc(N)c([N+](=O)[O-])c1	36.5 to 38
C#CCSc1nc[nH]n1	102 to 104
COc1ccc(C(Nc2ccc(C(=N)NO)cc2)C(=O)O)c(OCCO)c1 (racemic)	205
CCOC(=O)c1ccc(/C=C(\C)c2ccc3c(c2)CCC(C)(C)CS3)cc1	96 to 97
COC(=O)Cc1ccccc1OCc1cc(OCc2nc(-c3ccccc3)sc2C)no1	108 to 109
CCCOC12CCC(=O)C3(C)Oc4c(O)ccc5c4C31CCN(C)C2C5 (stereo unspecified)	193 to 195
CC12CCC(O)CC1CCC1C2CCC2(CN3CCOCC3)C(O)C(N3CCCC3)CC12 (stereo unspecified)	218
CC(C)NCC(O)COc1ccc(OCCn2cccn2)cc1 (stereo unspecified)	37 to 39
CS(=O)(=O)c1ccc(-c2cc(C(=O)c3cc(-c4ccc(S(C)(=O)=O)cc4)c(N4CCOCC4)s3)sc2N2CCOCC2)cc1	235 to 236
O=C(NN=CC=Cc1ccc([N+](=O)[O-])o1)c1cn2ccsc2n1	332
COC(=O)C1=C(C)NC(O)=C(C(=O)OC)C1c1cccc([N+](=O)[O-])c1 (stereo unspecified)	150 to 152
COc1ccc(C(=O)c2ccc(Sc3ccc(Cl)cc3)cc2)cc1OC	118 to 120
CONC(=O)Nc1ccc(-c2sc3c(c2CN(C)CCc2ccccn2)c(=O)n(-c2ccccn2)c(=O)n3Cc2c(F)cccc2F)cc1	194 to 196
N#Cc1c[nH]cc1-c1ccccc1C(F)(F)F	105 to 107
O=C1c2ccccc2C(=O)N1CCCN1CCC(c2noc3cc(F)ccc23)CC1	128 to 130
CON=C(C)C(=NOCc1ccccc1)C(=O)O	88 to 89
C=C(C(=O)O)c1ccc2cc(OC)ccc2c1	175
O=S(=O)(NCCCCC1Cc2ccccc2C1)c1ccc(Cl)cc1	77
CCOC(=O)c1cc(=O)c2cc3c(c(CC4CO4)c2o1)CCCC3 (stereo unspecified)	138 to 140
CCOc1ccc(C(=O)O)c(Cl)n1	185 to 188
Cc1cc2ccc(Cl)c(C(=O)O)c2nc1C(F)(F)F	186 to 188
Nc1ncnc2c1nc(O)n2CCc1ccccc1	256 to 258
